Measured values from US20090105301A1, “9A-SUBSTITUTED AZALIDES FOR THE TREATMENT OF MALARIA” (priority 2006, published 2009).
Converted amounts (≈) assume the structure as drawn.

Columns and labels:
Type in all cases: cell-based, Plasmodium falciparum
[1] = test system: P. falciparum W2 (CDC/Indochina III, W-2); experiment: In vitro screening protocol I, [3H]-hypoxanthine incorporation, W2; conditions: In vitro screening protocol I, P. falciparum W2; for IC50: Plasmodium falciparum, read-out: IC50 W2
Text: (§1) Agents Chemother. 27 (4) (1985) 525-530). The system was limited to the assessment of the intrinsic activity against the erythrocytic asexual life cycle (blood schizontocides). Two Plasmodium falciparum clones from CDC/Indochina III (W-2) and CDC/Sierra Leone I (D-6) (Oduola A M, Weatherly N F, Bowdre J H, Desjardins R E. Plasmodium falciparum: cloning by single-erythrocyte micromanipulation and heterogeneity in vitro. Exp Parasitol. 66 (1) (1988) 86-95) were used for all assays. TM91C235, a multiple drug resistant isolate from Thailand (Antimicrob. Agents Chemother. 46 (8) (2002) 2627 and Antimicrob. Agents Chemother. 43 (3) (1999) 598-602), was used for the prescreening assay. W-2 is resistant to chloroquine, quinine, and pyrimethamine and susceptible to mefloquine. D-6 tends to be more resistant to mefloquine and susceptible to chloroquine, quinine, and pyrimethamine. All documents cited in this paragraph are incorporated by reference in their entirety.
(§2) All parasites were maintained in continuous long term cultures in RPMI-1640 medium supplemented with 6% washed human A positive (A+)(erythrocytes, 25 mM Hepes, […], and 10% heat inactivated A+ human plasma or ALBUMAX® (lipid-rich bovine serum albumin; Invitrogen, Carlsbad, Calif.). All cultures and assays were conducted at 37° C. under an atmosphere of 5% CO2 and 5% O2, with a balance of N2.
(§3) The prescreening assay uses TM91C235 diluted at a 0.4% parasitemia in a 1% hematocrit in folic acid free and p-aminobenzoic acid free media RPMI-1640 and ALBUMAX®. […] The compound is further diluted in folate free (FF) culture medium with ALBUMAX® for the first initial starting concentration. The rest of the stock drug solution was kept at −70° C. The isolate was preexposed, in duplicate, at three concentrations (25,000 ng/ml, 2,500 ng/ml, and […]) of the test compound for 48 hr in a 96-well microtiter plate (MTP) using the BIOMEK® 2000 automated laboratory workstation. Each MTP contains chloroquine as control to assess the relative activity of the compound and to monitor the response of TM91C235.
(§4) After the preincubation, [^3H]-hypoxanthine was added to each well of the MTP. (The assay relies on the incorporation of radiolabeled hypoxanthine by the parasites, which indicates reproduction, and inhibition of isotope incorporation was attributed to activity of known or candidate antimalarial drugs). After 72 hours of total incubation time, the MTP were frozen to lyse the erythrocytes and parasites. The parasite DNA was recovered by harvesting the lysate onto glass-fiber filter plates using a Packard FilterMate™ Cell Harvester. The radioactivity was counted on a Packard TopCount™ microplate scintillation counter.
(§5) The serial dilution assay was conducted using the same assay conditions and stock solution of the compound used for the preliminary screen, described above. Both the D-6 and the W-2 clones were used. The compounds were diluted two-fold over 11 different concentration ranges with a starting concentration that was based on the preliminary screen. For each drug, the concentration response profile was determined and 50% inhibitory concentrations (IC50) were determined by using a non-linear, logistic dose response analysis program. […] For each assay, the IC50 for each clone was determined against the known antimalarials chloroquine and mefloquine. These control values established the compound's relative parasite susceptibility profile compared to known antimalarials. […]

[2] = test system: P. falciparum D6 (CDC/Sierra Leone I, D-6); experiment: In vitro screening protocol I, [3H]-hypoxanthine incorporation, D6; conditions: In vitro screening protocol I, P. falciparum D6; for IC50: Plasmodium falciparum, read-out: IC50 D6
Text: as §1, §2, §3, §4, §5

P. falciparum TM91C235 = experiment: In vitro screening protocol I, [3H]-hypoxanthine incorporation, TM91C235; conditions: In vitro screening protocol I, P. falciparum TM91C235; for IC50: Plasmodium falciparum, read-out: IC50 TM91C235
Text: as §1, §2, §3, §4, §5

| Compound | IC50 W2 [1] | IC50 D6 [2] | IC50 TM91C235 (P. falciparum TM91C235) | IC50 [1] | IC50 [2] | IC50 (P. falciparum TM91C235) |
| --- | --- | --- | --- | --- | --- | --- |
| CC[C@H]1OC(=O)[C@H](C)[C@@H](O[C@H]2C[C@@](C)(OC)[C@@H](O)[C@H](C)O2)[C@H](C)[C@@H](O[C@@H]2O[C@H](C)C[C@H](N(C)C)[C@H]2O)[C@](C)(O)C[C@@H](C)CN(CCCNCc2ccncc2)[C@H](C)[C@@H](O)[C@]1(C)O [Example 10, 9a-{3-[(Pyridine-4-yl-methyl)amino]propyl}-9-deoxo-9-dihydro-9a-aza-9a-homoerythromycin A] | C (200 < X ≦ 1000) | C (200 < X ≦ 1000) | C (200 < X ≦ 1000) | – | – | – |
| CC[C@H]1OC(=O)[C@H](C)[C@@H](O)[C@H](C)[C@@H](O[C@@H]2O[C@H](C)C[C@H](N(C)C)[C@H]2O)[C@](C)(O)C[C@@H](C)CN(CCCNCc2ccncc2)[C@H](C)[C@@H](O)[C@]1(C)O [Example 11, 9a-{3-[(Pyridine-4-yl-methyl)amino]propyl}-3-O-decladinosyl-9-deoxo-9-dihydro-9a-aza-9a-homoerythromycin A] | C (200 < X ≦ 1000) | G (3500 < X ≦ 5000) | F (2800 < X ≦ 3500) | – | – | – |
| CC[C@H]1OC(=O)[C@H](C)[C@@H](O[C@H]2C[C@@](C)(OC)[C@@H](O)[C@H](C)O2)[C@H](C)[C@@H](O[C@@H]2O[C@H](C)C[C@H](N(C)C)[C@H]2O)[C@](C)(O)C[C@@H](C)CN(CCCNCc2cccnc2)[C@H](C)[C@@H](O)[C@]1(C)O [Example 12, 9a-{3-[(Pyridine-3-yl-methyl)amino]propyl}-9-deoxo-9-dihydro-9a-aza-9a-homoerythromycin A] | C (200 < X ≦ 1000) | C (200 < X ≦ 1000) | C (200 < X ≦ 1000) | – | – | – |
| CC[C@H]1OC(=O)[C@H](C)[C@@H](O)[C@H](C)[C@@H](O[C@@H]2O[C@H](C)C[C@H](N(C)C)[C@H]2O)[C@](C)(O)C[C@@H](C)CN(CCCNCc2cccnc2)[C@H](C)[C@@H](O)[C@]1(C)O [Example 13, 9a-{3-[(Pyridine-3-yl-methyl)amino]propyl}-3-O-decladinosyl-9-deoxo-9-dihydro-9a-aza-9a-homoerythromycin A] | C (200 < X ≦ 1000) | G (3500 < X ≦ 5000) | D (1000 < X ≦ 2500) | – | – | – |
| CC[C@H]1OC(=O)[C@H](C)[C@@H](O[C@H]2C[C@@](C)(OC)[C@@H](O)[C@H](C)O2)[C@H](C)[C@@H](O[C@@H]2O[C@H](C)C[C@H](N(C)C)[C@H]2O)[C@](C)(O)C[C@@H](C)CN(CCCNCc2ccnc3ccccc23)[C@H](C)[C@@H](O)[C@]1(C)O [Example 14, 9a-{3-[(Quinolin-4-yl-methyl)amino]propyl}-9-deoxo-9-dihydro-9a-aza-9a-homoerythromycin A] | B (100 < X ≦ 200) | B (100 < X ≦ 200) | B (100 < X ≦ 200) | – | – | – |
| CC[C@H]1OC(=O)[C@H](C)[C@@H](O[C@H]2C[C@@](C)(OC)[C@@H](O)[C@H](C)O2)[C@H](C)[C@@H](O[C@@H]2O[C@H](C)C[C@H](N(C)C)[C@H]2O)[C@](C)(O)C[C@@H](C)CN(CCNCc2cccc3ccccc23)[C@H](C)[C@@H](O)[C@]1(C)O [Example 16, 9a-{2-[(Naphtalen-1-yl-methyl)amino]ethyl}-9-deoxo-9-dihydro-9a-aza-9a-homoerythromycin A] | A (X ≦ 100) | B (100 < X ≦ 200) | A (X ≦ 100) | – | – | – |
| CC[C@H]1OC(=O)[C@H](C)[C@@H](O[C@H]2C[C@@](C)(OC)[C@@H](O)[C@H](C)O2)[C@H](C)[C@@H](O[C@@H]2O[C@H](C)C[C@H](N(C)C)[C@H]2O)[C@](C)(O)C[C@@H](C)CN(CCCN(C)Cc2cccc3ccccc23)[C@H](C)[C@@H](O)[C@]1(C)O [Example 17, 9a-{3-[Methyl-(naphtalen-1-yl-methyl)amino]propyl}-9-deoxo-9-dihydro-9a-aza-9a-homoerythromycin A] | – | – | – | < 0.1 µg/mL | 0.1 to 0.2 µg/mL (≈ 0.106 to 0.211 µM) | < 0.1 µg/mL |
| CC[C@H]1OC(=O)[C@H](C)[C@@H](O[C@H]2C[C@@](C)(OC)[C@@H](O)[C@H](C)O2)[C@H](C)[C@@H](O[C@@H]2O[C@H](C)C[C@H](N(C)C)[C@H]2O)[C@](C)(O)C[C@@H](C)CN(CCCNCc2ccccn2)[C@H](C)[C@@H](O)[C@]1(C)O [Example 18, 9a-{3-[(Pyridin-2-yl-methyl)amino]propyl}-9-deoxo-9-dihydro-9a-aza-9a-homoerythromycin A] | – | – | – | 0.2 to 1 µg/mL (≈ 0.226 to 1.13 µM) | 1 to 2.5 µg/mL (≈ 1.13 to 2.83 µM) | 1 to 2.5 µg/mL (≈ 1.13 to 2.83 µM) |
| CC[C@H]1OC(=O)[C@H](C)[C@@H](O[C@H]2C[C@@](C)(OC)[C@@H](O)[C@H](C)O2)[C@H](C)[C@@H](O[C@@H]2O[C@H](C)C[C@H](N(C)C)[C@H]2O)[C@](C)(O)C[C@@H](C)CN(CCCNCCCc2ccccc2)[C@H](C)[C@@H](O)[C@]1(C)O [Example 19, 9a-{3-[(3-Phenylpropyl)amino]propyl}-9-deoxo-9-dihydro-9a-aza-9a-homoerythromycin A] | – | – | – | < 0.1 µg/mL | 0.1 to 0.2 µg/mL (≈ 0.11 to 0.22 µM) | < 0.1 µg/mL |
| CC[C@H]1OC(=O)[C@H](C)[C@@H](O[C@H]2C[C@@](C)(OC)[C@@H](O)[C@H](C)O2)[C@H](C)[C@@H](O[C@@H]2O[C@H](C)C[C@H](N(C)C)[C@H]2O)[C@](C)(O)C[C@@H](C)CN(CCCNCCc2ccccc2)[C@H](C)[C@@H](O)[C@]1(C)O [Example 20, 9a-{3-[(2-Phenylethyl)amino]propyl}-9-deoxo-9-dihydro-9a-aza-9a-homoerythromycin A] | – | – | – | < 0.1 µg/mL | 0.2 to 1 µg/mL (≈ 0.223 to 1.12 µM) | < 0.1 µg/mL |
| CC[C@H]1OC(=O)[C@H](C)[C@@H](O[C@H]2C[C@@](C)(OC)[C@@H](O)[C@H](C)O2)[C@H](C)[C@@H](O[C@@H]2O[C@H](C)C[C@H](N(C)C)[C@H]2O)[C@](C)(O)C[C@@H](C)CN(CCCNc2ccnc3cc(Cl)ccc23)[C@H](C)[C@@H](O)[C@]1(C)O [Example 21A, 9a-{3-[(7-Chloro-quinolin-4-yl)amino]propyl}-9-deoxo-9-dihydro-9a-aza-9a-homoerythromycin A] | – | – | – | < 0.1 µg/mL | < 0.1 µg/mL | < 0.1 µg/mL |
| CC[C@H]1OC(=O)[C@H](C)[C@@H](O[C@H]2C[C@@](C)(OC)[C@@H](O)[C@H](C)O2)[C@H](C)[C@@H](O[C@@H]2O[C@H](C)C[C@H](NC)[C@H]2O)[C@](C)(O)C[C@@H](C)CN(CCCNc2ccnc3cc(Cl)ccc23)[C@H](C)[C@@H](O)[C@]1(C)O [Example 21B, 9a-{3-[(7-Chloro-quinolin-4-yl)amino]propyl}-3′N-demethyl-9-deoxo-9-dihydro-9a-aza-9a-homoerythromycin A] | – | – | – | 0.1 to 0.2 µg/mL (≈ 0.106 to 0.213 µM) | 0.1 to 0.2 µg/mL (≈ 0.106 to 0.213 µM) | < 0.1 µg/mL |
| CC[C@H]1OC(=O)[C@H](C)[C@@H](O[C@H]2C[C@@](C)(OC)[C@@H](O)[C@H](C)O2)[C@H](C)[C@@H](O[C@@H]2O[C@H](C)C[C@H](N(C)C)[C@H]2O)[C@](C)(O)C[C@@H](C)CN(CCCNc2ccnc3ccccc23)[C@H](C)[C@@H](O)[C@]1(C)O [Example 22, 9a-[3-(Quinolin-4-yl-amino)propyl]-9-deoxo-9-dihydro-9a-aza-9a-homoerythromycin A] | – | – | – | < 0.1 µg/mL | < 0.1 µg/mL | < 0.1 µg/mL |
| CC[C@H]1OC(=O)[C@H](C)[C@@H](O)[C@H](C)[C@@H](O[C@@H]2O[C@H](C)C[C@H](N(C)C)[C@H]2O)[C@](C)(O)C[C@@H](C)CN(CCCNc2ccnc3cc(Cl)ccc23)[C@H](C)[C@@H](O)[C@]1(C)O [Example 23] | – | – | – | < 0.1 µg/mL | < 0.1 µg/mL | < 0.1 µg/mL |
